Reference: ChEMBL document CHEMBL6134901 (J Med Chem, 2025)

system: Clostridioides difficile; experiment: Antibacterial activity against Clostridium difficile ATTC43255 assessed as spore germination inhibition at 45 uM incubated for 60 mins by spectrometry relative to control; type: functional; conditions: ATTC43255, 1 h

O=C1C[C@H](c2nc(-c3ccc(Oc4ccc(C(F)(F)F)cc4)cc3)no2)CN1 and O=C1C[C@@H](c2nc(-c3ccc(Oc4ccc(C(F)(F)F)cc4)cc3)no2)CN1 cannot be ordered by inhibition at 45 µM: under 10% for the first, under 10% for the second.

O=C(O)c1cccc(-c2noc(-c3ccccc3F)n2)c1 and Oc1ccc(-c2noc(-c3ccc(O)cc3)n2)cc1 cannot be ordered by inhibition at 45 µM: under 10% for the first, under 10% for the second.

First: NCCc1ccc(Oc2cc(-c3noc(-c4ccc(CN)cc4)n3)ccn2)cc1
Second: NCc1ccc(-c2nc(-c3ccc(Oc4ccc(F)c(F)c4)cc3)no2)cc1
The inhibition at 45 µM of the first is lower: 27% for the first, 44% for the second.

CS(=O)(=O)Nc1ccc(-c2nc(-c3ccc(OC4CCCC4)cc3)no2)cc1 and Nc1ccc(-c2nc(-c3ccc(OC4CCCC4)cc3)no2)cc1 cannot be ordered by inhibition at 45 µM: under 10% for the first, under 10% for the second.

CCN(CC)CCc1nc(-c2ccccc2)no1 and NCCCCc1nc(-c2ccc(OC3CCCC3)cc2)no1 cannot be ordered by inhibition at 45 µM: under 10% for the first, under 10% for the second.

First: Oc1ccc(-c2nc(-c3ccc(Oc4ccc(I)cc4)cc3)no2)cc1
Second: Oc1ccc(-c2nc(-c3ccc(Oc4cccc(I)c4)cc3)no2)cc1
The inhibition at 45 µM of the first is higher: 39% for the first, 37% for the second.

CC(C)Oc1ncc(-c2nc(-c3cccc4c3ccn4CCCC(=O)O)no2)cc1Cl [GSK-2018682] and CC(C)Oc1ncc(-c2nc(-c3cccc4c3CCC4NCCC(=O)O)no2)cc1C#N (centres undefined) cannot be ordered by inhibition at 45 µM: under 10% for the first, under 10% for the second.

CC(C)Cc1ccc(-c2nc(-c3ccc(CN4CC(C(=O)O)C4)cc3)no2)cc1 and NCc1ccc(-c2nc(-c3ccc(CN4CCCC4)cc3)no2)cc1 cannot be ordered by inhibition at 45 µM: under 10% for the first, under 10% for the second.

Going from N#Cc1ccc(-c2nc(-c3ccc(Oc4ccc(F)cc4)cc3)no2)cc1 to Oc1ccc(-c2nc(-c3ccc(Oc4ccc(C(F)(F)F)cc4)cc3)no2)cc1, the inhibition at 45 µM rises from under 10% to 14%.

First: NCc1ccc(-c2nc(-c3ccc(OC(F)(F)F)cc3)no2)cc1
Second: COc1ccc(-c2noc(-c3ccc(CN)cc3)n2)cc1
The inhibition at 45 µM of the first is higher: 33% for the first, under 10% for the second.

CCC(C)Nc1c[nH]nc1-c1nc(-c2ccc(Oc3ccc(C(F)(F)F)cc3)cc2)no1 (centres undefined) and CCCCNc1c[nH]nc1-c1nc(-c2ccc(Oc3ccc(C(F)(F)F)cc3)cc2)no1 cannot be ordered by inhibition at 45 µM: under 10% for the first, under 10% for the second.

Oc1ccc(-c2nc(-c3ccc(OC4CC4)cc3)no2)cc1 and Oc1ccc(-c2nc(-c3ccc(OC4CCC4)cc3)no2)cc1 cannot be ordered by inhibition at 45 µM: under 10% for the first, under 10% for the second.

Compared with Oc1ccc(-c2nc(N3CCN(c4ccccc4)CC3)no2)cc1, Oc1ccc(-c2nc(N3CCN(c4cccc(Cl)c4)CC3)no2)cc1 is lower in inhibition at 45 µM: 18% for the first, under 10% for the second.

FC(F)(F)c1ccc(Oc2ccc(-c3noc(-c4nc[nH]n4)n3)cc2)cc1 and FC(F)(F)c1ccc(Oc2ccc(-c3noc(-c4c[nH]cn4)n3)cc2)cc1 cannot be ordered by inhibition at 45 µM: under 10% for the first, under 10% for the second.

CCCOc1ccc(-c2noc(-c3ccc(O)cc3)n2)cc1 and CCCCOc1ccc(-c2noc(-c3ccc(O)cc3)n2)cc1 cannot be ordered by inhibition at 45 µM: under 10% for the first, under 10% for the second.

COC(OC)c1ccc(-c2noc(-c3ccc(O)cc3)n2)cc1 and CCOc1ccc(-c2noc(-c3ccc(O)cc3)n2)cc1 cannot be ordered by inhibition at 45 µM: under 10% for the first, under 10% for the second.

O=[N+]([O-])c1cn(CCO)c(-c2nc(-c3ccc(OC4CCCC4)cc3)no2)n1 and O=[N+]([O-])c1c[nH]c(-c2nc(-c3ccc(OC4CCCC4)cc3)no2)n1 cannot be ordered by inhibition at 45 µM: under 10% for the first, under 10% for the second.

CC(C)(C)OC(=O)NCc1ccc(-c2nc(-c3ccc(Oc4ccc(F)c(F)c4)cc3)no2)cc1 and CC(C)(C)OC(=O)NCc1ccc(-c2nc(-c3ccc(Oc4ccc(C(F)(F)F)cc4)cc3)no2)cc1 cannot be ordered by inhibition at 45 µM: under 10% for the first, under 10% for the second.

FC(F)(F)c1ccc(Oc2ccc(-c3noc(-c4ccncc4)n3)cc2)cc1 and FC(F)(F)c1ccc(Oc2ccc(-c3noc(-c4ccc(Br)cc4)n3)cc2)cc1 cannot be ordered by inhibition at 45 µM: under 10% for the first, under 10% for the second.

FC(F)(F)c1ccc(Oc2ccc(-c3noc(-c4cn[nH]c4)n3)cc2)cc1 and FC(F)(F)c1ccc(Oc2ccc(-c3noc(-c4n[nH]cc4Br)n3)cc2)cc1 cannot be ordered by inhibition at 45 µM: under 10% for the first, under 10% for the second.

First: NCc1ccc(-c2nc(-c3ccc(OC4CCCC4)cc3)no2)cc1
Second: NCc1ccc(-c2nc(-c3ccc(OC4CCCCC4)cc3)no2)cc1
The inhibition at 45 µM of the first is lower: 41% for the first, 43% for the second.

Going from NCc1ccc(-c2nc(-c3ccc(OC4CCC4)cc3)no2)cc1 to NCc1ccc(-c2nc(-c3ccc(OC4CC4)cc3)no2)cc1, the inhibition at 45 µM falls from 24% to 12%.

Oc1ccc(-c2nc(-c3ccc4c(c3)OCO4)no2)cc1 and COc1ccc(-c2noc(-c3ccc(O)cc3)n2)cc1OC cannot be ordered by inhibition at 45 µM: under 10% for the first, under 10% for the second.

NCCCCc1nc(-c2ccc(Oc3ccc(F)cc3)cc2)no1 and NCCCOc1ccc(-c2noc(-c3ccc(O)cc3)n2)cc1 cannot be ordered by inhibition at 45 µM: under 10% for the first, under 10% for the second.

O=[N+]([O-])c1cc(Oc2ccc(C(F)(F)F)cc2)cnc1-c1noc(-c2ccc(O)cc2)n1 and O=[N+]([O-])c1cc(-c2nc(-c3ccc(Oc4ccc(C(F)(F)F)cc4)cc3)no2)cnc1O cannot be ordered by inhibition at 45 µM: under 10% for the first, under 10% for the second.

Oc1ccc(-c2nc(-c3ccc(Oc4ccc(C(F)(F)F)cc4)cc3)no2)cn1 and Nc1cc(-c2nc(-c3ccc(Oc4ccc(C(F)(F)F)cc4)cc3)no2)cnc1O cannot be ordered by inhibition at 45 µM: under 10% for the first, under 10% for the second.

Oc1ccc(-c2nc(-c3ccc(O[C@@H]4CCNC4)cc3)no2)cc1 and NCc1ccc(-c2nc(-c3ccc(O[C@@H]4CCNC4)cc3)no2)cc1 cannot be ordered by inhibition at 45 µM: under 10% for the first, under 10% for the second.

O=C(Nc1c[nH]nc1-c1nc(-c2ccc(Oc3ccc(C(F)(F)F)cc3)cc2)no1)c1ccccn1 and O=C(Nc1c[nH]nc1-c1nc(-c2ccc(Oc3ccc(C(F)(F)F)cc3)cc2)no1)c1ccccc1 cannot be ordered by inhibition at 45 µM: under 10% for the first, under 10% for the second.

Oc1ccc(-c2nc(-c3ccc4oc5ccc(F)cc5c4c3)no2)cc1 and Oc1ccc(-c2nc(-c3ccc4oc5ccccc5c4c3)no2)cc1 cannot be ordered by inhibition at 45 µM: under 10% for the first, under 10% for the second.

Oc1ccc(-c2nc(-c3ccc(Oc4ccc(C(F)(F)F)cc4)nc3)no2)cc1 and Oc1ccc(-c2nc(-c3ccc(Oc4ccc(C(F)(F)F)cc4)cc3)no2)cc1O cannot be ordered by inhibition at 45 µM: under 10% for the first, under 10% for the second.

C#CCOc1ccc(-c2noc(-c3ccc(O)cc3)n2)cc1 and O=Cc1ccc(-c2noc(-c3ccc(O)cc3)n2)cc1 cannot be ordered by inhibition at 45 µM: under 10% for the first, under 10% for the second.

N#Cc1ccc(-c2nc(-c3ccc(OC4CCCC4)cc3)no2)cc1 and O=C(O)c1ccc(-c2nc(-c3ccc(OC4CCCC4)cc3)no2)cc1 cannot be ordered by inhibition at 45 µM: under 10% for the first, under 10% for the second.

OCC#Cc1c[nH]nc1-c1nc(-c2ccc(Oc3ccc(C(F)(F)F)cc3)cc2)no1 and Nc1c[nH]nc1-c1nc(-c2ccc(Oc3ccc(C(F)(F)F)cc3)cc2)no1 cannot be ordered by inhibition at 45 µM: under 10% for the first, under 10% for the second.

First: Oc1ccc(-c2nc(-c3ccc(Oc4ccccc4CBr)cc3)no2)cc1
Second: O=[N+]([O-])c1ccccc1Oc1ccc(-c2noc(-c3ccc(O)cc3)n2)cc1
The inhibition at 45 µM of the first is higher: 27% for the first, 21% for the second.

FC(F)(F)c1ccc(Oc2ccc(-c3noc(-c4n[nH]c5ccccc45)n3)cc2)cc1 and FC(F)(F)c1ccc(Oc2ccc(-c3noc(-c4cc5ccccc5[nH]4)n3)cc2)cc1 cannot be ordered by inhibition at 45 µM: under 10% for the first, under 10% for the second.

Nc1ccc(-c2nc(-c3ccc(Oc4ccc(C(F)(F)F)cc4)cc3)no2)cc1F and COc1cc(-c2nc(-c3ccc(Oc4ccc(C(F)(F)F)cc4)cc3)no2)ccc1O cannot be ordered by inhibition at 45 µM: under 10% for the first, under 10% for the second.

FC(F)(F)c1ccc(Oc2ccc(-c3noc(-c4cn[nH]n4)n3)cc2)cc1 and FC(F)(F)c1ccc(Oc2ccc(-c3noc(-c4n[nH]cc4I)n3)cc2)cc1 cannot be ordered by inhibition at 45 µM: under 10% for the first, under 10% for the second.

Going from CS(=O)(=O)Nc1ccc(Cc2noc(-c3ccc4[nH]cc(CCN)c4c3)n2)cc1 [L-694247] to CCCOc1ccc(-c2noc(-c3ccc(CN)cc3)n2)cc1, the inhibition at 45 µM rises from under 10% to 12%.

COc1ccc(-c2nc(-c3ccc(Oc4ccc(C(F)(F)F)cc4)cc3)no2)cc1[N+](=O)[O-] and COc1ccc(-c2nc(-c3ccc(Oc4ccc(C(F)(F)F)cc4)cc3)no2)cc1OC cannot be ordered by inhibition at 45 µM: under 10% for the first, under 10% for the second.

Oc1ccc(-c2nc(-c3ccc(OC4CCOC4)cc3)no2)cc1 (centres undefined) and N[C@H]1CC[C@H](Oc2ccc(-c3noc(-c4ccc(O)cc4)n3)cc2)CC1 cannot be ordered by inhibition at 45 µM: under 10% for the first, under 10% for the second.

c1cc2cc(-c3nc(-c4ccc(OC5CCCC5)cc4)no3)ccc2[nH]1 and c1nc2cc(-c3nc(-c4ccc(OC5CCCC5)cc4)no3)ccc2[nH]1 cannot be ordered by inhibition at 45 µM: under 10% for the first, under 10% for the second.

Cc1c(Cl)c(C)[n+]([O-])c(Cl)c1-c1noc(-c2cc(O)c(O)c([N+](=O)[O-])c2)n1 [OPICAPONE] and O=[N+]([O-])c1c[nH]c(-c2nc(-c3ccc(Oc4ccc(C(F)(F)F)cc4)cc3)no2)c1 cannot be ordered by inhibition at 45 µM: under 10% for the first, under 10% for the second.

CC(C)(C)OC(=O)N1CCC(Nc2c[nH]nc2-c2nc(-c3ccc(Oc4ccc(C(F)(F)F)cc4)cc3)no2)CC1 and FC(F)(F)c1ccc(Oc2ccc(-c3noc(-c4n[nH]cc4NC4CCCC4)n3)cc2)cc1 cannot be ordered by inhibition at 45 µM: under 10% for the first, under 10% for the second.

C[C@@H](N)c1nc(-c2ccc(OC3CCCC3)cc2)no1 and Clc1c[nH]nc1-c1nc(-c2ccc(OC3CCCC3)cc2)no1 cannot be ordered by inhibition at 45 µM: under 10% for the first, under 10% for the second.

First: NCc1ccc(-c2nc(-c3ccc(OC(F)F)cc3)no2)cc1
Second: CCCCOc1ccc(-c2noc(-c3ccc(CN)cc3)n2)cc1
The inhibition at 45 µM of the first is lower: under 10% for the first, 32% for the second.

Nc1cncc(-c2nc(-c3ccc(Oc4ccc(C(F)(F)F)cc4)cc3)no2)c1 and FC(F)(F)c1ccc(Oc2ccc(-c3noc(-c4ccc5[nH]ccc5c4)n3)cc2)cc1 cannot be ordered by inhibition at 45 µM: under 10% for the first, under 10% for the second.

FC(F)(F)c1ccc(Oc2ccc(-c3noc(-c4n[nH]cc4NC4CCCCC4)n3)cc2)cc1 and FC(F)(F)c1ccc(Oc2ccc(-c3noc(-c4c[nH]c5ncccc45)n3)cc2)cc1 cannot be ordered by inhibition at 45 µM: under 10% for the first, under 10% for the second.

Oc1ccc(-c2nc(-c3ccc(C(O)C(F)(F)F)cc3)no2)cc1 (centres undefined) and Oc1ccc(-c2nc(-c3ccc(N4CCOCC4)cc3)no2)cc1 cannot be ordered by inhibition at 45 µM: under 10% for the first, under 10% for the second.

Compared with c1cc(-c2noc(-c3ccc4c(c3)CCN4)n2)ccc1OC1CCCC1, NCc1ccc(-c2nc(-c3ccnc(N4CCCC4)c3)no2)cc1 is higher in inhibition at 45 µM: under 10% for the first, 13% for the second.

NCc1ccc(-c2nc(-c3ccc(Oc4ccc(C(F)(F)F)cc4)cn3)no2)cc1 gave an inhibition at 45 µM of 24%.
